From ChEMBL document CHEMBL4270552, “4-(Phenoxy) and 4-(benzyloxy)benzamides as potent and selective inhibitors of mono-ADP-ribosyltransferase PARP10/ARTD10” (Eur J Med Chem, 2018)

Assays:
[1] = molecular target: Protein mono-ADP-ribosyltransferase PARP14 (Homo sapiens, UniProt Q460N5); experiment: Inhibition of N-terminal His-tagged thioredoxin-fused human ARTD8 (1535 to 1801 residues) expressed in Escherichia coli Rosetta2 (DE3) after 21 hrs in presence of NAD+
[2] = molecular target: T1, Protein mono-ADP-ribosyltransferase PARP10 (Homo sapiens) (UniProt Q53GL7); conditions: U2OS
T1 sequence (whole entry): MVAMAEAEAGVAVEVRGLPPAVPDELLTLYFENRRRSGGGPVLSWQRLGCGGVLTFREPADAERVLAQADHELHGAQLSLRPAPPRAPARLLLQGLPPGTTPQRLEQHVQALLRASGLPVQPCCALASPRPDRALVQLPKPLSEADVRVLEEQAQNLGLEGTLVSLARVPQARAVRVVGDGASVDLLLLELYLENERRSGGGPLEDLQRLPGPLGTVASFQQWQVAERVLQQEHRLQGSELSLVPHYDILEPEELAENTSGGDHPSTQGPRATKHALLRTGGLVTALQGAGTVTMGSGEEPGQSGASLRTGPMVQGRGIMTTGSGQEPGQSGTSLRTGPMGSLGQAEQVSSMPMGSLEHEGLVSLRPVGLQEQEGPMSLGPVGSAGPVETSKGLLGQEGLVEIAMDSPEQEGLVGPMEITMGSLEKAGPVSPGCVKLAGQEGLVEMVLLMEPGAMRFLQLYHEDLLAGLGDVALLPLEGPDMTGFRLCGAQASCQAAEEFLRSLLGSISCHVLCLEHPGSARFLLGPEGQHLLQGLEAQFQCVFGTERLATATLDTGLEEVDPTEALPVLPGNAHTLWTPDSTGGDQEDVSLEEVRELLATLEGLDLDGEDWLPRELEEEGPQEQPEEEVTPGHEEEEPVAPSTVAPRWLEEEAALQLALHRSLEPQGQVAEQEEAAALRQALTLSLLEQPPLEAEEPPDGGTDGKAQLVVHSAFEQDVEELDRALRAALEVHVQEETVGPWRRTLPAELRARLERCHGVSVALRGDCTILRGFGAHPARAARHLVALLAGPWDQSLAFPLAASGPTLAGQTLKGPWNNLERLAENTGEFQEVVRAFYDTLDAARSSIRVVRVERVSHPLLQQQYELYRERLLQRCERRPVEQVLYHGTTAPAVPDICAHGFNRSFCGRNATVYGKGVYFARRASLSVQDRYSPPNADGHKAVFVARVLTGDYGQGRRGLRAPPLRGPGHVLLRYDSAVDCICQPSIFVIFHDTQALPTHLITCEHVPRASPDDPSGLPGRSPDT
Description: Stabilization of ARTD10 in human U2OS cells assessed as increase in melting temperature at 10 uM by CESTA

[3] = molecular target: T1, Protein mono-ADP-ribosyltransferase PARP10 (Homo sapiens)
Description: Stabilization of C-terminal His-tagged human ARTD10 (809 to 1017 residues) expressed in Escherichia coli Rosetta2 (DE3) assessed as change in melting temperature at 100 uM by SYPRO Orange-dye based differential scanning fluorimetric method

[4] = molecular target: Poly [ADP-ribose] polymerase 1 (Homo sapiens, UniProt P09874); experiment: Inhibition of N-terminal His-tagged human ARTD1 (1 to 1014 residues) expressed in Escherichia coli Rosetta2 (DE3) using activated DNA as substrate after 1.5 hrs in presence of NAD+
Poly [ADP-ribose] polymerase 1, sequence (P09874 whole entry, the tested form may be a part): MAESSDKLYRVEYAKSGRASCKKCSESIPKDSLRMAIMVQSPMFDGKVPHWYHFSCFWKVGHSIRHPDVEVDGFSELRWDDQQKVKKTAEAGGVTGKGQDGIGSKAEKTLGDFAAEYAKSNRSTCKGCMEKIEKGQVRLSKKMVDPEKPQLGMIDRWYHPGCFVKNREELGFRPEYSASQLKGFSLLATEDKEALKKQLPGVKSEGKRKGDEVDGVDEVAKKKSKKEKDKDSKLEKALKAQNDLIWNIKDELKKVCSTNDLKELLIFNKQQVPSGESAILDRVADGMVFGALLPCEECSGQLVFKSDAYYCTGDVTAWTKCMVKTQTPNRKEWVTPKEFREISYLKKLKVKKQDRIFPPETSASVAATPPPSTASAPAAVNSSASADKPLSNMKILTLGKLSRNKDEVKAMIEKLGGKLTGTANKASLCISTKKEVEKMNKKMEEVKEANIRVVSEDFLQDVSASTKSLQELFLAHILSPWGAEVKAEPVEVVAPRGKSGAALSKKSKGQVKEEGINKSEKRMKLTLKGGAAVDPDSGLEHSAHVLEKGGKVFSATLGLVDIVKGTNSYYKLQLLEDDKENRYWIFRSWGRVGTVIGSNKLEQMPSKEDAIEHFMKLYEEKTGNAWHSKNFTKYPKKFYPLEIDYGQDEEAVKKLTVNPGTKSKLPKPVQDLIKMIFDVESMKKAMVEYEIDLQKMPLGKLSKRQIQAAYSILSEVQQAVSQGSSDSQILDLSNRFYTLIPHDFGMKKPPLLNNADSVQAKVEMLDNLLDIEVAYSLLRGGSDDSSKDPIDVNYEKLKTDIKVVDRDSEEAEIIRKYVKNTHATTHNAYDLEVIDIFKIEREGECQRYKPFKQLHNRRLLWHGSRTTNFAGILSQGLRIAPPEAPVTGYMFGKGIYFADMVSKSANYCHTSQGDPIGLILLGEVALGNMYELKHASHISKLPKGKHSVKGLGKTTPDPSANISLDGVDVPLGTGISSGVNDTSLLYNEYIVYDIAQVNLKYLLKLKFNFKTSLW

[5] = molecular target: T2, Protein mono-ADP-ribosyltransferase PARP3 (Homo sapiens, UniProt Q9Y6F1); experiment: Inhibition of N-terminal His-tagged thioredoxin-fused human ARTD3 (1 to 533 residues) expressed in Escherichia coli Rosetta2 (DE3) using DNA as substrate after 3 hrs in presence of NAD+
T2 sequence (Q9Y6F1 whole entry): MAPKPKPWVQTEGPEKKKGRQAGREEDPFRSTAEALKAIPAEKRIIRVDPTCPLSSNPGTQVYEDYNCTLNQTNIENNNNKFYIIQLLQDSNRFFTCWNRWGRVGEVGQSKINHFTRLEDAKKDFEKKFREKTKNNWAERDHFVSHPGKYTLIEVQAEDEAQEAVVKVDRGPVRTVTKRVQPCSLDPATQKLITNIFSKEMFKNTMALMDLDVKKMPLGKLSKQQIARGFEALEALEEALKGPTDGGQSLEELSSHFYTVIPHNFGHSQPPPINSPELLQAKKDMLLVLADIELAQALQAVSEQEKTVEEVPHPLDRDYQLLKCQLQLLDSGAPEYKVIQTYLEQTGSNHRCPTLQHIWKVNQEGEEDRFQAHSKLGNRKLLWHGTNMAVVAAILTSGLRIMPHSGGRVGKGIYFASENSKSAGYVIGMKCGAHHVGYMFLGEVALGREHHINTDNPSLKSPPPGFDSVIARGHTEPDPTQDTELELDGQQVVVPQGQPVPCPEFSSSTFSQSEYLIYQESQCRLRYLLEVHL

[6] = molecular target: Poly [ADP-ribose] polymerase 2 (Homo sapiens, UniProt Q9UGN5); experiment: Inhibition of N-terminal His-tagged thioredoxin-fused human ARTD2 (1 to 583 residues) expressed in Escherichia coli Rosetta2 (DE3) using activated DNA as substrate after 1.5 hrs in presence of NAD+
Poly [ADP-ribose] polymerase 2, sequence (Q9UGN5 whole entry, the tested form may be a part): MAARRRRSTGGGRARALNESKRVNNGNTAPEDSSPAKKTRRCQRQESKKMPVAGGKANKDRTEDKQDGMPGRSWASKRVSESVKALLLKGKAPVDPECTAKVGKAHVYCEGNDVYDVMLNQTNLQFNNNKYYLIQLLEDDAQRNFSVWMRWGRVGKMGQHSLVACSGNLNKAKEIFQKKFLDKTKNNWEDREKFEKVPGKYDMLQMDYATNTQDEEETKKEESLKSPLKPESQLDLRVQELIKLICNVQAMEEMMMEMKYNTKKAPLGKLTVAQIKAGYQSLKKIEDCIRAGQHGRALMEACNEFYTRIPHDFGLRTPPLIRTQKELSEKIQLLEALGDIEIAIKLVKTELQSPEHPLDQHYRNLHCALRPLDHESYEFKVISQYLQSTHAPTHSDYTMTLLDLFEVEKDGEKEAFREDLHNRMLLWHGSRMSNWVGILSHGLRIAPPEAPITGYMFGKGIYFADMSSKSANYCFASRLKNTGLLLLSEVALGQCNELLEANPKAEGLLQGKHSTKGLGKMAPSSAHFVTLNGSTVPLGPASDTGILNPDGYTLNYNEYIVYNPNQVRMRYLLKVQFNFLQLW

Protein mono-ADP-ribosyltransferase PARP14, sequence (Q460N5 whole entry, the tested form may be a part): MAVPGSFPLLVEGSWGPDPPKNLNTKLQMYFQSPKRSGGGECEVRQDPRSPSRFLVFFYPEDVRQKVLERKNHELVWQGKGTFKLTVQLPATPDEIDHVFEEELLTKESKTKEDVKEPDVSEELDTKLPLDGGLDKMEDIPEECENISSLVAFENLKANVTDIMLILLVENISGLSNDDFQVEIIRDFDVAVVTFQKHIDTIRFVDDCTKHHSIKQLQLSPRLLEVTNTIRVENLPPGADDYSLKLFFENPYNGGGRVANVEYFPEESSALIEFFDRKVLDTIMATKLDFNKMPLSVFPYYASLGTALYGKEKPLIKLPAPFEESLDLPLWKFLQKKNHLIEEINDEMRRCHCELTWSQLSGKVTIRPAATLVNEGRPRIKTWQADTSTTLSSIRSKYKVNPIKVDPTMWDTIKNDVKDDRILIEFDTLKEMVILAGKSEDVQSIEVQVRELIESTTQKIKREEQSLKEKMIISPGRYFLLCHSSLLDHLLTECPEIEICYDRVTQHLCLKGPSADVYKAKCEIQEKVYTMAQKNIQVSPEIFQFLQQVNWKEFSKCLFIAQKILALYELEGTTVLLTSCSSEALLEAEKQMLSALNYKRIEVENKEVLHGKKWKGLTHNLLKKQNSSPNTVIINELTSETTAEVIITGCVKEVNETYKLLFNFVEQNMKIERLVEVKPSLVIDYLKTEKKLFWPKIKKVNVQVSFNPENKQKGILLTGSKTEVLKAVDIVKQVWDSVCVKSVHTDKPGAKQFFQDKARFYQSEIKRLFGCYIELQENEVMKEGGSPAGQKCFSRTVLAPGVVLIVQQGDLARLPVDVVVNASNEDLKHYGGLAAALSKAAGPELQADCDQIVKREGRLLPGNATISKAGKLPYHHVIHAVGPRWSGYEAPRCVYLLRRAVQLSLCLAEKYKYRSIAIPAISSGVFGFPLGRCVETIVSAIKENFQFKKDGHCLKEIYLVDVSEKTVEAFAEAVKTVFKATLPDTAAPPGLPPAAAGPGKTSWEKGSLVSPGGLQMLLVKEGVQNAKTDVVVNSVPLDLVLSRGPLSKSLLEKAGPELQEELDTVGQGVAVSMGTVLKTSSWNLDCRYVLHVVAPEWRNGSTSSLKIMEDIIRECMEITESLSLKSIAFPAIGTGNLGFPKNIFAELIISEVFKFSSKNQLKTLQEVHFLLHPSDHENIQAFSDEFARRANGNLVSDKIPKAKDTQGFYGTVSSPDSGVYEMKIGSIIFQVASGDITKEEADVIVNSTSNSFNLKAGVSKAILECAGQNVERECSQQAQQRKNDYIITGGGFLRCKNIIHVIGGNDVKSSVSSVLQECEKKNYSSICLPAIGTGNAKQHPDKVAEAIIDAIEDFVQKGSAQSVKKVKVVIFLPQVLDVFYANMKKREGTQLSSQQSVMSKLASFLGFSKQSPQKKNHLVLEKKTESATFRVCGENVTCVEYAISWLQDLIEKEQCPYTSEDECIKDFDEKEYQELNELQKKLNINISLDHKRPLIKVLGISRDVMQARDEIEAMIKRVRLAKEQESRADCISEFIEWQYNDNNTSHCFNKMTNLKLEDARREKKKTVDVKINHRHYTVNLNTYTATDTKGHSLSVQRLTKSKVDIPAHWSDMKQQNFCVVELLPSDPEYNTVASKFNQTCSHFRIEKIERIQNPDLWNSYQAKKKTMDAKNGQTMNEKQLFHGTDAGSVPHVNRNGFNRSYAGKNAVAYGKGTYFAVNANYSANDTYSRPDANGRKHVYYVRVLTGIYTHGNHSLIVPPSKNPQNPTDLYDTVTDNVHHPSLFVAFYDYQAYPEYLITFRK

SMILES | IC50 [1] | Tm [2] | ΔTm [3] | IC50 [4] | IC50 [5] | IC50 [6]
NC(=O)c1ccc(OCc2ccccc2F)cc1 | 10 µM | 54 to 56 °C | 4.2 °C | > 100 µM | > 100 µM | > 100 µM
NC(=O)c1ccc(Oc2ccc(C=O)cc2)cc1 | > 10 µM | 54 to 56 °C | 3.6 °C | > 100 µM | 86 µM | > 100 µM
NC(=O)c1ccc(Oc2ccc(C(=O)O)cc2)cc1 | > 10 µM |  | 5.21 °C | > 100 µM | > 100 µM | > 100 µM
COc1ccc(C(N)=O)cc1 | > 10 µM |  | 2.76 °C | 57 µM | > 100 µM | 77 µM
